Assay results published in patent publication US20120277211A1, “METHODS AND COMPOSITIONS FOR THE TREATMENT OF PSYCHOTIC DISORDERS THROUGH THE IDENTIFICATION OF THE SULT4A1-1 HAPLOTYPE” (priority 2009, published 2012).
Where two headings read alike, the source gives them in different places. Marks after values point to notes of the source that are not given here.

Key:
[1] = system: Caucasian schizophrenia patients; test: CATIE Phase I: change in total PANSS (LOCF) by SULT4A1-1 haplotype status, Caucasians; type: in vivo, human; conditions: for Percent change from baseline PANSS scores, mean (standard deviation): Phase I; for Percent change from baseline PANSS scores, mean (standard deviation) / Number of individuals with change in total PANSS ≦−20% (responders) / Number of individuals with change in total PANSS ≧−20% (non-responders) / Responders: LOCF; for Number of individuals with change in total PANSS ≦−20% (responders) / Number of individuals with change in total PANSS ≧−20% (non-responders) / Responders: CATIE Caucasians; for Responders: change in PANSS ≦−20%
Excerpt: There are several different metrics for quantifying response in clinical trials of antipsychotic medications. The most commonly used psychometric instrument is the Positive and Negative Syndrome Scale (PANSS), a 30-item semi-quantitative instrument scored by clinical professionals (Kay et al., 1987). The greater the decrease in PANSS score, the better the clinical response. The most direct measure of clinical response is absolute change in PANSS score. In addition to absolute change, the improvement is often reported as a percentage change from baseline PANSS score.
A decrease of at least 20% in total PANSS is one commonly used threshold for response (Leucht et al., 2009).
The design of the CATIE study has been described in detail by others (Lieberman et al., 2005; Stroup et al., 2003). […] A total of 738 subjects consented to provide DNA for genetic study. […] Retrospective genetic analyses, judged to be exempt from human studies requirements by an IRB, were conducted in the current study.
All tested patients were studied using well established clinical endpoints comparing baseline, intermediate, and last observation carried forward (LOCF) for the PANSS scores using CATIE data. LOCF analysis is a commonly used clinical endpoint for clinical trials for neuropsychiatric drugs, with changes in PANSS scores of between negative 20% and negative 30% used as typical endpoints to indicate clinically significant response (Leucht et al., 2009). To remove time on drug as a variable for the CATIE trial, analysis was limited to only those patients who were randomized to a different drug following the initial washout period (drug switchers).
The CATIE clinical data set included baseline PANSS scores based on clinical assessments prior to initiation of the assigned therapy, but following the washout period for any patients previously on antipsychotic medication. Follow up PANSS data for the CATIE trial were collected at each visit as described in detail by others (Stroup et al., 2003).
Since follow-up on subjects was not done at uniform time intervals, analysis was done using the last observation for each patient in treatment Phase I of the trial as the measure of response (last observation carried forward, LOCF). Main effect and interaction terms between the SULT4A1-1 haplotype and drug therapy were included in the linear model. A pre-determined set of contrasts for differences in percent change PANSS by haplotype within each drug therapy (three comparisons) and by drug therapy within each haplotype (six comparisons) were evaluated, with adjustment for multiple-comparisons using the step-up false-discovery rate (FDR) controlling procedure (Benjamini and Hochberg, 1995). A sub-analysis omitting those patients who were randomized to the same antipsychotic drug therapy was also conducted.

[2] = system: African American schizophrenia patients; test: CATIE: change in total PANSS (LOCF) by SULT4A1-1 haplotype status, African Americans; type: in vivo, human; conditions: for Number of individuals with change in total PANSS ≦−20% (responders) / Number of individuals with change in total PANSS ≧−20% (non-responders): LOCF
Description: The design of the CATIE study has been described in detail by others (Lieberman et al., 2005; Stroup et al., 2003). […] A total of 738 subjects consented to provide DNA for genetic study. […] Retrospective genetic analyses, judged to be exempt from human studies requirements by an IRB, were conducted in the current study. All tested patients were studied using well established clinical endpoints comparing baseline, intermediate, and last observation carried forward (LOCF) for the PANSS scores using CATIE data. […] To remove time on drug as a variable for the CATIE trial, analysis was limited to only those patients who were randomized to a different drug following the initial washout period (drug switchers).

[3] = system: Caucasian schizophrenia patients; test: CATIE: time to discontinuation for all causes by SULT4A1-1 status; type: in vivo, human
Excerpt: The primary endpoint for the CATIE study was time to discontinuation for all causes (Lieberman et al., 2005). Thus the inventors evaluated the effect of SULT41-1 status on this important parameter.

[4] = system: schizophrenia patients; test: CATIE: months of successful treatment measured by the CGI scale (TMSUCC1); type: in vivo, human
Excerpt: The CATIE clinical data set included Clinical Global Impression (CGI) Scale, an observer-provided assessment of the psychiatric health of the patient (Stroup et al., 2003; Guy 1976). Patients are rated with the CGI Scale from 1 to 7, with higher scores indicating greater severity of illness. The CATIE study provided a response variable that measured the time (in months) of successful treatment as measured by the CGI scale (“TMSUCC1” in the CATIE data).

[5] = system: Caucasian schizophrenia patients; test: CATIE: hospitalization due to exacerbation of psychosis by SULT4A1-1 status; type: in vivo, human
Excerpt: To assess if SULT4A1-1 status impacts the risk of hospitalization in Caucasians, the inventors assigned SULT4A1-1 status to each CATIE subject and evaluated hospitalization events due to exacerbation of psychosis. For this analysis, the inventors assigned a dichotomous value (positive or negative) for hospitalization status to subjects in each phase of the trial based on only the first hospitalization event for a given patient in that phase. Patients participating in Phases 1, 2, and/or 3 were included in the totals for the appropriate drug.
A Kaplan-Meier survival analysis was performed to determine whether there was a difference between the survival (hospitalization) rates for the SULT4A1-1 negative and SULT4A1-1 positive patient populations treated with each of the atypical antipsychotics. Survival plots model the fraction of the population that survived (i.e., no hospitalization event) as a function of time.

[6] = system: schizophrenia patients; conditions: Phase II; for Responders: decrease PANSS ≧20%, LOCF
[7] = system: unsegmented patient populations; conditions: cited from earlier work
[8] = comparator = labelled drug in SULT4A1-1+ patients
[9] = complete sample, SULT4A1-1+, labelled drug vs Risperidone
[10] = complete sample, within drug, SULT4A1-1+ vs SULT4A1-1−
[11] = randomized to a different medication, SULT4A1-1+, labelled drug vs Risperidone
[12] = randomized to a different medication, within drug, SULT4A1-1+ vs SULT4A1-1−

OCCOCCN1CCN(C2=Nc3ccccc3Sc3ccccc32)CC1 [Quetiapine]
Mean difference in total PANSS score between olanzapine and labelled drug, CATIE SULT4A1-1+ ([1]; SULT4A1-1+): −12.9 | Percent change from baseline PANSS scores, mean (standard deviation) ([1]; SULT4A1-1+, complete sample): −4.52 (17.6) % | Percent change from baseline PANSS scores, mean (standard deviation) ([1]; SULT4A1-1+, patients randomized to a different medication): −6.44 (19.0) % | DELTA PANSS % (mean change in PANSS score from baseline to LOCF) ([1]; SULT4A1-1 negative): 0*** % | Number of individuals with change in total PANSS ≦−20% (responders) ([1]; SULT4A1-1 negative): 13 | Number of individuals with change in total PANSS ≧−20% (non-responders) ([1]; SULT4A1-1 negative): 50 | Responders ([1]; SULT4A1-1 negative): 20.6%** | DELTA PANSS % (mean change in PANSS score from baseline to LOCF) ([1]; SULT4A1-1 positive): −9** % | Number of individuals with change in total PANSS ≧−20% (non-responders) ([1]; SULT4A1-1 positive): 11 | Number of individuals with change in total PANSS ≦−20% (responders) ([1]; SULT4A1-1 positive, randomized to a different drug): 7 | Responders ([1]; SULT4A1-1 positive): 38.8% | Mean difference in total PANSS score between olanzapine and labelled drug, CATIE SULT4A1-1− ([1]; SULT4A1-1−): −3.8 | Percent change from baseline PANSS scores, mean (standard deviation) ([1]; SULT4A1-1−, complete sample): 0.84 (26.5) % | Percent change from baseline PANSS scores, mean (standard deviation) ([1]; SULT4A1-1−, patients randomized to a different medication): 0.4 (26.7) % | Mean difference in total PANSS score between olanzapine and labelled drug, CATIE unsegmented ([1]; Unsegmented): −6.2 | Effect size: olanzapine SULT4A1-1+ vs comparator group [1, 8]: 0.75 | Mean difference (95% CI) in delta PANSS: olanzapine SULT4A1-1+ minus comparator group [1, 8]: −14.9 (−28.3 to −1.5) | Difference in percent change in PANSS score (first group minus second) [1, 9]: −1.0% | Difference in percent change in PANSS score, corrected for age, age of onset and sex [1, 9]: −0.54% | Difference in percent change in PANSS score (first group minus second) [1, 10]: −5.4% | Difference in percent change in PANSS score, corrected for age, age of onset and sex [1, 10]: −2.65% | Effect Size attributable to SULT4A1-1 status in CATIE ([1]; olanzapine-treated SULT4A1-1 positive versus labelled drug-treated SULT4A1-1 positive): −0.75^b | Difference in percent change in PANSS score (first group minus second) [1, 11]: −4.6% | Difference in percent change in PANSS score, corrected for age, age of onset and sex [1, 11]: −3.33% | Difference in percent change in PANSS score (first group minus second) [1, 12]: −6.8% | Difference in percent change in PANSS score, corrected for age, age of onset and sex [1, 12]: −2.91% | Responders ([2]; SULT4A1-1 negative): 26.5% | Number of individuals with change in total PANSS ≦−20% (responders) ([2]; SULT4A1-1 negative): 9 | Number of individuals with change in total PANSS ≧−20% (non-responders) ([2]; SULT4A1-1 negative): 25 | Responders ([2]; SULT4A1-1 positive): 33.3% | Number of individuals with change in total PANSS ≦−20% (responders) ([2]; SULT4A1-1 positive): 2 | Number of individuals with change in total PANSS ≧−20% (non-responders) ([2]; SULT4A1-1 positive): 4 | Time to discontinuation, mean ([3]; SULT4A1-1 negative): 8.6*** Months | Time to discontinuation, mean ([3]; SULT4A1-1 positive): 10.3 Months | Length of successful treatment (CGI Months), Mean ([4]; SULT4A1-1 negative): 4.22 Months | Length of successful treatment (CGI Months), Mean ([4]; SULT4A1-1 positive): 5.96^c Months | Length of successful treatment (CGI Months), Mean ([4]; Unsegmented): 4.65 Months | HOSP, number of patients hospitalized ([5]; SULT4A1-1 negative): 24 | HOSP, rate of hospitalization ([5]; SULT4A1-1 negative): 19.5% | HOSP, number of patients hospitalized ([5]; SULT4A1-1 positive): 1 | HOSP, rate of hospitalization ([5]; SULT4A1-1 positive): 2.9% | HOSP, rate of hospitalization ([5]; Unsegmented): 15.9% | HOSP, number of patients hospitalized ([5]; Unsegmented, Phases 1, 2 and/or 3, first event): 25 | Kaplan-Meier: difference between survival (no hospitalization) rates of SULT4A1-1 negative and positive patients ([5]; per drug): significant difference | % Responders ([6]; SULT4A1-1 Negative): 9.0% | Nonresponders ([6]; SULT4A1-1 Negative): 10 | Responders ([6]; SULT4A1-1 Negative): 1 | % Responders ([6]; SULT4A1-1 Positive): 0% | Nonresponders ([6]; SULT4A1-1 Positive): 1 | Responders ([6]; SULT4A1-1 Positive): 0 | Effect Size vs. FGA ([7]; first generation antipsychotics, Davis et al. (2003)): 0.01 | Effect Size vs. Placebo ([7]; meta-analysis, Leucht et al. (2009), negative = greater reduction in PANSS): −0.42 | Mean difference in total PANSS score between olanzapine and labelled drug, Meta-analysis ([7]; unsegmented populations, Leucht et al. (2009)): −3.7
